± gives the standard deviation of the reports.

Experiment in data set [1]: not given
This is another data set of the same source.

Experiment in data set [2]: not given
This is another data set of the same source.

`*c1ccc2c(c1)N(CC(CCCCCCCC)CCCCCCCCCC)C(=O)/C2=C1/C(=O)N(CC(CCCCCCCC)CCCCCCCCCC)c2cc(-c3ccc(-c4ccc(*)s4)s3)ccc21` (repeat unit) gave a glass transition temperature of 65.00 °C.
In the case of `*c1cc2c(s1)c1sc(-c3sc(-c4ccc(-c5cc(CCCCCC)c(*)s5)c5nsnc45)cc3CCCCCC)cc1n2CC(CC)CCCC` (repeat unit), the glass transition temperature amounted to 90.00 °C.
`*c1ccc(-c2ccc(N3C(=O)c4cc5c(cc4C3=O)C(c3ccccc3)(C(F)(F)F)c3cc4c(cc3O5)C(=O)N(*)C4=O)cc2C(F)(F)F)c(C(F)(F)F)c1` (repeat unit): the glass transition temperature in data set [1] amounted to 400.00 °C.
Still for that read-out and setting: next, `*c1cc(N2C(=O)c3ccc(-c4ccc5c(c4)C(=O)N(*)C5=O)cc3C2=O)ccc1OCC(F)(F)C(F)(F)C(F)(F)C(F)(F)C(F)(F)C(F)(F)F` (repeat unit): 262.00 °C; `*c1ccc(P(=O)(c2ccccc2)c2ccc(N3C(=O)c4ccc(-c5ccc6c(c5)C(=O)N(*)C6=O)cc4C3=O)cc2)cc1` (repeat unit): 371.00 °C.
The same measure, in the same setting: under `*c1ccc2c(c1)C(=O)N(c1c(F)cc(Oc3ccc(C(c4ccc(Oc5cc(F)c(N6C(=O)c7ccc(C(*)(C(F)(F)F)C(F)(F)F)cc7C6=O)c(F)c5)cc4)(C(F)(F)F)C(F)(F)F)cc3)cc1F)C2=O` (repeat unit) stands 224.00 °C; under `*c1ccc2c(c1)C(=O)N(c1cccc(S(=O)(=O)c3cccc(N4C(=O)c5ccc(*)cc5C4=O)c3)c1)C2=O` (repeat unit), 260.00 °C; under `*c1ccc2c(c1)C(=O)N(c1ccc(-c3ccc(N4C(=O)c5ccc(C(*)(C(F)(F)F)C(F)(F)F)cc5C4=O)cc3-c3cccc(C(F)(F)F)c3)c(-c3cccc(C(F)(F)F)c3)c1)C2=O` (repeat unit), 278.00 °C.
For `*c1ccc2c(c1)C(=O)N(c1ccc(-c3ccc(N4C(=O)c5ccc(C(*)(C(F)(F)F)C(F)(F)F)cc5C4=O)cc3-c3ccccc3C(F)(F)F)c(-c3ccccc3C(F)(F)F)c1)C2=O` (repeat unit), the glass transition temperature in data set [1] was determined as 289.00 °C.
On the same count and under the same terms, next, `*c1ccc2c(c1)C(=O)N(c1ccc(-c3ccc(N4C(=O)c5ccc(C(*)(C(F)(F)F)C(F)(F)F)cc5C4=O)cc3Cl)c(Cl)c1)C2=O` (repeat unit): 336.00 °C; `*c1ccc2c(c1)C(=O)N(c1ccc(N3C(=O)c4ccc(C(*)(C(F)(F)F)C(F)(F)F)cc4C3=O)cc1C(F)(F)F)C2=O` (repeat unit): 366.00 °C.
Same read-out and setting: next, `*c1ccc2c(c1)C(=O)N(c1ccc(N3C(=O)c4ccc(C(*)(C(F)(F)F)C(F)(F)F)cc4C3=O)cc1F)C2=O` (repeat unit): 370.00 °C; `*c1ccc2c(c1)C(=O)N(c1ccc(Oc3ccc(P(=O)(c4ccccc4)c4ccc(Oc5cccc(N6C(=O)c7ccc(C(*)(C(F)(F)F)C(F)(F)F)cc7C6=O)c5)cc4)cc3)cc1)C2=O` (repeat unit): 220.00 °C.
On the same count and under the same terms, next, `*c1ccc2c(c1)C(=O)N(c1ccc(OCC(F)(F)C(F)(F)C(F)(F)F)c(N3C(=O)c4ccc(C(*)(C(F)(F)F)C(F)(F)F)cc4C3=O)c1)C2=O` (repeat unit): 266.00 °C.
For the molecule `*C(=O)c1ccc2c(c1)C(=O)N(c1ccc(S(=O)(=O)c3ccc(N4C(=O)c5ccc(*)cc5C4=O)cc3)cc1)C2=O` (repeat unit), the glass transition temperature in data set [1] was 307.00 °C.
The same measure, in the same setting: under `*C(=O)c1ccc2c(c1)C(=O)N(c1cccc(C(=O)c3ccccc3N3C(=O)c4ccc(*)cc4C3=O)c1)C2=O` (repeat unit) stands 259.00 °C.
As for `*C(=O)c1ccc2c(c1)C(=O)N(c1c(CC)cc(Cc3cc(CC)c(N4C(=O)c5ccc(*)cc5C4=O)c(CC)c3Cl)c(Cl)c1CC)C2=O` (repeat unit), in data set [1], the glass transition temperature stood at 300.00 °C.
In data set [1], `*C(=O)c1ccc2c(c1)C(=O)N(c1ccc(Cc3cccc(N4C(=O)c5ccc(*)cc5C4=O)c3)cc1)C2=O` (repeat unit) yielded a glass transition temperature of 292.00 °C.
As to `*C(=O)c1ccc2c(c1)C(=O)N(c1cccc(Oc3cccc(N4C(=O)c5ccc(*)cc5C4=O)c3)c1)C2=O` (repeat unit), the glass transition temperature in data set [1] is 221.00 °C.
`*c1cccc2c1C(=O)N(c1ccc(Cc3ccc(N4C(=O)c5cccc(*)c5C4=O)c(C)c3)cc1C)C2=O` (repeat unit) yielded a glass transition temperature in data set [1] of 299.50 ± 0.7 °C.
As for `*c1ccc2c(c1)C(=O)N(c1ccc(Cc3ccc(N4C(=O)c5ccc(*)cc5C4=O)c(C)c3C)c(C)c1C)C2=O` (repeat unit), the glass transition temperature in data set [1] was 297.00 °C.
Same read-out and setting: next, `*c1cccc2c1C(=O)N(c1ccc(Oc3ccc(N4C(=O)c5cccc(*)c5C4=O)cc3)cc1)C2=O` (repeat unit): 306.00 ± 26 °C; `*Oc1cccc(C(C)(C)c2ccc(Oc3ccc4c(c3)C(=O)N(c3ccc(Oc5ccc(N6C(=O)c7ccc(*)cc7C6=O)cc5)cc3)C4=O)cc2)c1` (repeat unit): 223.00 °C.
The same measure, in the same setting: under `*Oc1cccc(C(=O)c2ccc(Oc3ccc4c(c3)C(=O)N(c3ccc(Oc5ccc(N6C(=O)c7ccc(*)cc7C6=O)cc5)cc3)C4=O)cc2)c1` (repeat unit) stands 210.00 °C.
The same measure, in the same setting: next, `*Sc1ccc2c(c1)C(=O)N(c1ccc(Oc3ccc(Oc4ccc(N5C(=O)c6cccc(*)c6C5=O)cc4)cc3)cc1)C2=O` (repeat unit): 238.00 ± 5.7 °C; `*Oc1ccc(C(C)(C)c2ccc(Cc3ccc4c(c3)C(=O)N(c3cccc(N5C(=O)c6ccc(*)cc6C5=O)c3)C4=O)cc2)cc1` (repeat unit): 215.00 °C.
In data set [1], `*Oc1cccc(C(C)(C)c2ccc(Oc3ccc4c(c3)C(=O)N(c3cccc(N5C(=O)c6ccc(*)cc6C5=O)c3)C4=O)cc2)c1` (repeat unit) had a glass transition temperature of 215.00 °C.
Same read-out and setting: next, `*Oc1cccc(S(=O)(=O)c2ccc(Oc3ccc4c(c3)C(=O)N(c3cccc(N5C(=O)c6ccc(*)cc6C5=O)c3)C4=O)cc2)c1` (repeat unit): 265.00 °C.
For the molecule `*Oc1cccc(C(C)(C)c2ccc(Oc3cccc4c3C(=O)N(c3cccc(N5C(=O)c6cccc(*)c6C5=O)c3)C4=O)cc2)c1` (repeat unit), the glass transition temperature in data set [1] came out at 236.00 °C.
Still for that read-out and setting: under `*Oc1cccc(C(=O)c2ccc(Oc3cccc4c3C(=O)N(c3cccc(N5C(=O)c6cccc(*)c6C5=O)c3)C4=O)cc2)c1` (repeat unit) stands 248.00 °C; under `*Oc1cccc(S(=O)(=O)c2ccc(Oc3cccc4c3C(=O)N(c3cccc(N5C(=O)c6cccc(*)c6C5=O)c3)C4=O)cc2)c1` (repeat unit), 266.00 °C.
The molecule `*Oc1cccc(Sc2ccc(Oc3cccc4c3C(=O)N(c3cccc(N5C(=O)c6cccc(*)c6C5=O)c3)C4=O)cc2)c1` (repeat unit) returned a glass transition temperature in data set [1] of 231.00 °C.
`*Oc1ccc2c(c1)C(=O)N(c1cccc(Oc3ccc(C(=O)c4ccc(Oc5cccc(N6C(=O)c7cccc(*)c7C6=O)c5)cc4)cc3)c1)C2=O` (repeat unit) displayed a glass transition temperature in data set [1] of 205.50 ± 2.1 °C.
Still for that read-out and setting: under `*Oc1cccc2c1C(=O)N(c1cccc(S(=O)(=O)c3cccc(N4C(=O)c5cccc(*)c5C4=O)c3)c1)C2=O` (repeat unit) stands 241.00 °C; under `*C(=O)c1ccc2c(c1)C(=O)N(c1ccc(Cc3ccccc3N3C(=O)c4ccc(*)cc4C3=O)cc1)C2=O` (repeat unit), 290.00 °C; under `*C(=O)c1ccc2c(c1)C(=O)N(c1ccc(Oc3ccccc3N3C(=O)c4ccc(*)cc4C3=O)cc1)C2=O` (repeat unit), 287.00 °C.
`*C(=O)c1ccc2c(c1)C(=O)N(c1cccc(Oc3ccccc3N3C(=O)c4ccc(*)cc4C3=O)c1)C2=O` (repeat unit) returned a glass transition temperature in data set [1] of 259.00 °C.
`*c1ccc(C(=O)c2ccccc2-n2c(=O)c3cc4c(=O)n(*)c(=O)c4cc3c2=O)cc1` (repeat unit): in data set [1], the glass transition temperature amounted to 321.00 °C.
Turning to `*c1ccc(Oc2ccccc2N2C(=O)c3cc4c(cc3C2=O)C(=O)N(*)C4)cc1` (repeat unit), the glass transition temperature in data set [1] amounted to 386.00 °C.
For the molecule `*CC(*)c1ccc(OC)cc1C` (repeat unit) [Poly(4-methoxy-2-methyl styrene) ], the glass transition temperature in data set [2] was found to be 87.4 ± 3.5 °C.
The molecule `*CC(*)(C)C(=O)OCC(C)C` (repeat unit) [Poly(isobutyl methacrylate) ] came in with a glass transition temperature in data set [2] of 47.4 ± 0.7 °C.
As for `*CC(*)c1cccc(CO)c1` (repeat unit) [Poly(m-hydroxymethyl styrene) ], in data set [2], the glass transition temperature was 124.4 ± 0.7 °C.
On the same count and under the same terms, next, `*CC(*)c1ccccc1OCCCCCCCC` (repeat unit) [Poly(o-n-octoxy styrene) ]: 12 ± 1.4 °C.
In data set [2], `*CC(*)c1ccc(C(C)CC)cc1` (repeat unit) [Poly(p-sec-butyl styrene) ] gave a glass transition temperature of 85.4 ± 0.7 °C.
`*C(=O)c1ccc2c(c1)C(=O)N(c1cccc(C(=O)c3cccc(N4C(=O)c5ccc(*)cc5C4=O)c3)c1)C2=O` (repeat unit) [Polyimide]: in data set [1], the glass transition temperature is 220 ± 130 °C.
Consider `*CCCCCCO*` (repeat unit) [Polyoxyhexamethylene ], for which the glass transition temperature in data set [2] was -71.6 ± 3.5 °C.

For the origin of these results see the PolyMetriX glass transition set.
